Measured values published in patent US9125937B2, “Labelled analogues of halobenzamides as multimodal radiopharmaceuticals and their precursors” (INSTITUT NATIONAL DE LA SANTE ET DE LA RECHERCHE MEDICALE …, priority 2008, dated 2015).
Where “and” joins values, the source holds several entries; their conditions need not be identical. Equal entries are not always repeated.

What was measured:
B16 F0 murine melanoma = experiment: Biodistribution study by planar scintigraphic imaging (gamma camera), tumour uptake quantification; format: in vivo, C57BL6 male mice; details: i.v.
Protocol: Tumour Implantation. For transplantation, cells grown in monolayer culture to confluence were trypsinized and washed with phosphate buffer saline (PBS). They were resuspended in PBS and each mouse received 0.1 mL subcutaneously (3×10^5 cells) on the left flank in order to allow a tumour growth on the body side. Ten days later, the tumours became palpable with a percentage of tumour take of 98-100%.
The in vivo biodistribution and kinetic profile of each radiolabelled (iodine-125) compound have been studied in C57BL6 male mice bearing the B16 F0 murine melanoma by repeated planar scintigraphic imaging which allows the tumour uptake follow-up in the same animal.
Gamma Camera. In vivo radionuclide imaging was performed using a γ IMAGER (Biospace Mesures, Paris, France) especially dedicated for small animal, a scintigraphic camera with a continuous 4 mm thick×120 mm diameter CsI(Na) crystal, a position-sensitive Hamamatsu R3292 photomultiplier and a 10 cm field of view.
Imaging Protocol. On day 14 after tumour implantation (tumour weight 0.25±0.10 g) each [^125I]-radioiodinated compound was administered intravenously via a tail vein (0.1 μmol, range 3.7 to 7 MBq/animal) in three mice for each compound. At different times after administration (1, 3, 6, 24, 72 hours, 5, 7, 10 and 15 days), mice were anesthetized with 0.2 mL, for a 20 g mouse, of a ketamine-xylazine mixture in saline (1-0.25 mL for 5 mL) by i. p. administration, and repeated planar scintigraphic whole body imaging (mouse laying in anterior position on the camera field) were performed by an acquisition time of 10 min. For this study, the camera was equipped with a 1.8/0.2/20 collimator (hole diameter/septum thickness/height in mm).
Tumoural Radioactivity Quantification Approach. The injected activity to each mouse was determined from scintigraphic imaging of the syringe before and after the injection using the γ-IMAGER.
Regions of interest (ROIs) were delineated over the whole body image: whole body uptake area (or the various fixing areas, eyes, thyroid and abdomen) and one for the tumour uptake area. In the various ROIs, the activity (cpm) was quantified using the Biospace measures γ VISION+software. These values were normalized to the injected dose. For the tumour, the activity was also normalized to the tumour weight. Firstly, the volume was calculated from the two dimensions caliper measurement (Bissery, M. C.; Guenard, D.; Gueritte-Voegelin, F.; Lavelle, F. Experimental antitumour activity of taxotere (RP 56976, NSC 628503) a taxol analogue. Cancer res. 1991, 51, 4845-4852). Secondly, the weight was determined from the volume value corrected by a factor determined from a large panel of experiments (Weight g=volume mm^3×0.6). The data were expressed as % ID/g of B 16F0 melanoma tumour.

Row | SMILES | melting point | other results
1 | CCN(CCNC(=O)c1cn2cc(I)ccc2n1)CCOc1cccnc1F.Cl.Cl | 143 to 145 °C | –
2 | CCN(CC)CCNC(=O)c1cc(F)c2cc(I)ccc2n1 [Compound 106, N-[2-(diethylamino)ethyl]-4-fluoro-6-iodoquinoline-2-carboxamide] | 59 °C and 58 to 60 °C | –
3 | CCN(CCNC(=O)c1ccnc(F)c1)CCNC(=O)c1cnc2cc(I)ccc2n1.Cl.Cl | 157 to 159 °C | –
4 | CCN(CC)CCNC(=O)c1cc(I)cc2c(F)ccnc12 [Compound 102, N-[2-(diethylamino)ethyl]-4-fluoro-6-iodoquinoline-8-carboxamide] | 80 °C and 79 to 81 °C | –
5 | CCN(CCNC(=O)c1ccc2cc(I)ccc2n1)CCOc1cccnc1F.Cl.Cl | 99 to 101 °C (dec.) | –
6 | CCN(CCNC(=O)c1ccnc(F)c1)CCNC(=O)c1cnc2cc(I)ccc2n1 [Compound 39, N-[2-[N-ethyl-N-[2-[[(2-fluoropyridin-4-yl)carbonyl]amino]ethyl]amino]ethyl]-6-iodoquinoxaline-2-carboxamide] | 146 to 148 °C | –
7 | CCN(CC)Cc1ccnc(F)c1CNC(=O)c1cnc2cc(I)ccc2n1 [Compound 91, N-[[4-(N,N-diethylaminomethyl)-2-fluoropyridin-3-yl]methyl]-6-iodoquinoxaline-2-carboxamide] | 147 to 149 °C | –
8 | CCN(CC)CCNC(=O)c1cnc2ccc(I)cc2c1F [Compound 96, N-[2-(diethylamino)ethyl]-4-fluoro-6-iodoquinoline-3-carboxamide] | 88 to 90 °C and 89 °C | –
9 | CCN(CCNC(=O)c1ccc2cncc(I)c2n1)CCOc1cccnc1F.Cl.Cl | 131 to 133 °C (dec.) | –
10 | CCN(CCNC(=O)c1cnc2cc(I)ccc2n1)CCNc1cccc(Br)n1 [Compound 63, N-[2-[N-[2-[(6-bromopyridin-2-yl)amino]ethyl]-N-(ethyl)amino]ethyl]-6-iodoquinoxaline-2-carboxamide] | 49 to 51 °C and 50 °C | –
11 | CCN(C/C=C/CF)CCNC(=O)c1cnc2cc([125I])ccc2n1.Cl.Cl [[^125I]57] | – | Radioactive concentration in tumour (tumoural uptake) (B16 F0 murine melanoma; 1 H post injection): 10.8 ± 2.3 % ID/g; Radioactive concentration in tumour (tumoural uptake) (B16 F0 murine melanoma; 3 H post injection): 12.3 ± 2.8 % ID/g; Radioactive concentration in tumour (tumoural uptake) (B16 F0 murine melanoma; 6 H post injection): 13.9 ± 1.3 % ID/g; Radioactive concentration in tumour (tumoural uptake) (B16 F0 murine melanoma; 24 H post injection): 15.0 ± 0.5 % ID/g; Radioactive concentration in tumour (tumoural uptake) (B16 F0 murine melanoma; 72 H post injection): 10.0 ± 0.9 % ID/g; Radioactive concentration in tumour (tumoural uptake) (B16 F0 murine melanoma; 120 H post injection): 5.6 ± 1.0 % ID/g; Radioactive concentration in tumour (tumoural uptake) (B16 F0 murine melanoma; 168 H post injection): 3.3 ± 0.6 % ID/g; Radioactive concentration in tumour (tumoural uptake) (B16 F0 murine melanoma; 240 H post injection): 1.9 ± 0.3 % ID/g; Radioactive concentration in tumour (tumoural uptake) (B16 F0 murine melanoma; 360 H (15 days) post injection): 1.3 ± 0.6 % ID/g
12 | CCN(CCNC(=O)c1ccc2cc(I)ccc2c1)CCOc1cccnc1F.Cl | 157 to 159 °C | –
13 | CCN(CCNC(=O)c1cnc2cc(I)ccc2n1)CCNc1cccc(F)n1.Cl.Cl | 99 to 101 °C (dec.) | –
14 | CCN(CCNC(=O)c1cccc2nc3cc(I)ccc3nc12)CCOc1cccnc1F.Cl.Cl | 127 to 129 °C (dec.) | –
